Reference: paper PMC4648050, “Discovery of Inhibitors of Trypanosoma brucei by Phenotypic Screening of a Focused Protein Kinase Library” (Chemmedchem, 2015)
Values after ≈ are worked out from the molar mass of the structure shown. “Also recorded” adds a separate entry of the source. Like-named read-outs stand apart in the source and are kept apart here.

How the values were obtained:
[1] = Intrinsic clearance in mouse liver microsomes; format: in vitro ADME; details: mouse hepatic microsomes, 0.5 μM compound
Method: Intrinsic clearance experiments: Test compound (0.5 μM) was incubated with female CD1 mouse liver microsomes (Xenotech LLC; 0.5 mg mL^−1 50 mM potassium phosphate buffer, pH 7.4), and the reaction started with the addition of excess NADPH (8 mg mL^−1 50 mM potassium phosphate buffer, pH 7.4). Immediately, at t0, then at 3, 6, 9, 15, and 30 min an aliquot (50 μL) of the incubation mixture was removed and mixed with MeCN (100 μL) to stop the reaction. Internal standard was added to all samples, the samples were centrifuged to sediment precipitated protein, and the plates were then sealed prior to UPLC–MS/MS analysis using a Quattro Premier XE instrument (Waters Corp., USA). XLfit (IDBS, UK) was used to calculate the exponential decay and consequently the rate constant (k) from the ratio of peak area of test compound to internal standard at each time point. The rate of intrinsic clearance [CLint, mL min^−1 (g liver)^−1] of each test compound was then calculated with Equation (3): […]
in which V [mL (mg protein)^−1] is the incubation volume per mg protein added, and microsomal protein yield is taken as 52.5 mg protein per gram of liver. Verapamil (0.5 μM) was used as a positive control to confirm acceptable assay performance.

[2] = Plasma protein binding (equilibrium dialysis); format: in vitro ADME; details: mouse plasma, equilibrium dialysis; for fraction unbound at 5 h, 10 μg g^−1: female, CD1, read-out: PPB
Method: Plasma protein binding experiments: In brief, a 96-well equilibrium dialysis apparatus was used to determine the free fraction in plasma for each compound (HT Dialysis LLC, Gales Ferry, CT, USA). Membranes (12-14 kDa cutoff) were conditioned in deionised H2O for 60 min, followed by conditioning in 80:20 deionised H2O/EtOH for 20 min, and then rinsed in isotonic buffer before use. Female CD1 mouse plasma was removed from the freezer and allowed to thaw on the day of experiment. Thawed plasma was then centrifuged (Allegra […], Beckman Coulter, USA), spiked with test compound (10 μg g^-1), and 150 μL aliquots (n=6 replicate determinations) loaded into the 96-well equilibrium dialysis plate. Dialysis against isotonic buffer (150 μL) was carried out for 5 h in a temperature-controlled incubator at ∼37 °C (Barworld Scientific Ltd., UK) using an orbital microplate shaker at 125 rpm (Barworld Scientific). At the end of the incubation period, aliquots of plasma or buffer were transferred to micronic tubes (Micronic B.V., the Netherlands), and the composition in each tube was balanced with control fluid such that the volume of buffer to plasma is the same. Sample extraction was performed by the addition of 400 μL MeCN containing an appropriate internal standard. Samples were allowed to mix for 1 min and then centrifuged at 3000 rpm in 96-well blocks for 15 min (Allegra […], Beckman Coulter, USA). All samples were analysed by UPLC-MS/MS on a Quattro Premier XE Mass Spectrometer (Waters Corp.). The unbound fraction was determined as the ratio of the peak area in buffer to that in plasma.

T. b. brucei = test: Trypanosome proliferation assay; format: cell-based, Trypanosoma brucei brucei; details: for EC50: geometric mean of two or more determinations, standard cell viability (resazurin) assay, read-out: EC50 T. b. brucei; for fold loss of activity (T. b. brucei EC50): relative to the comparator compound
Method: (§1) Trypanosome and MRC5 proliferation assay: Measurement of inhibition of the proliferation of MRC5 cells (human lung fibroblasts) and T. brucei bloodstream-stage cells was performed using a modification of a cell viability assay previously described.[35, 36] Compounds ([…] to 0.5 nM) were incubated with 2×10^3 cells per well in 0.2 mL of the appropriate culture medium (MEM with 10 % foetal bovine serum for MRC5 cells) in clear 96-well plates. Plates were incubated at 37 °C in the presence of 5 % CO2 for 69 h. Resazurin was then added to a final concentration of 50 μM, and plates were incubated as above for a further 4 h before being read on a BioTek Flx800 fluorescence plate reader.

[3] = Kinetic aqueous solubility (laser nephelometry); format: physicochemical; details: Milli-Q water with 2.5% DMSO, kinetic from dmso stock, range 250–12 μM, read-out: Aq. Sol. (aqueous kinetic solubility)
Method: Solubility experiments: The kinetic aqueous solubility of the test compounds was measured using laser nephelometry. Compounds were subject to serial dilution from 10 mM to 0.5 mM in DMSO. An aliquot was then mixed with Milli-Q H2O to obtain an aqueous dilution plate with a final concentration range of 250–12 μM, with a final DMSO concentration of 2.5 %. Triplicate aliquots were transferred to a flat-bottomed polystyrene plate which was immediately read on the NEPHELOstar (BMG Lab Technologies). The amount of laser scatter caused by insoluble particulates (relative nephelometry units, RNU) was plotted against compound concentration using a segmental regression fit, with the point of inflection being quoted as the compounds′ aqueous solubility (in μM).

[4] = system: MRC5 cells (human lung fibroblasts); test: MRC5 proliferation assay; format: cell-based; details: geometric mean of two or more determinations
Method: as §1

[5] = system: T. brucei bloodstream-stage cells; test: Static–cidal (SC) assay; format: cell-based, Trypanosoma brucei brucei; details: for EC50 / MCC: Trypanosoma brucei; for EC50: 48 h; for MCC: static–cidal assay in triplicate, read-out: MCC (minimal cidal concentration); for Mode: static/cidal classification from growth curves; for mode of antiparasitic effect (in words): text and figure legend, at concentrations tested; for plateau of dose–response curve (inhibition): static–cidal dose–response curve
Method: Determination of cidality against T. brucei bloodstream-stage cells was performed using a static–cidal (SC) assay as previously reported.[26] Briefly, bloodstream-form trypanosomes were seeded into 384-well plates at 4×10^5 mL^−1 (50 μL per well), followed by immediate addition of resazurin (50 μM final) to one of the plates, and all plates were incubated at 37 °C, 5 % CO2. After 4 h the t0 plate was read using a PerkinElmer Victor 3 plate reader (λex=528 nm, λem=590 nm). The second plate was processed in the same manner 20 h later, and at 44 h the last plate was processed. The minimum cidal concentration (MCC) is defined as the lowest concentration of drug that results in a decrease of resorufin signal over time. For dose–response curves from this assay either a monophasic or a biphasic equation was used, depending on which one provided the best fit. For monophasic fits, the following four-parametric equation [Eq. (1)] was used:
in which A=percent inhibition at bottom, B=percent inhibition at top, C=EC50, D=slope, x=inhibitor concentration, and y=percent inhibition. Equation (2) was used for biphasic fits:
for which A=percent inhibition at mid-plateau, B=slope, C=log[SC EC50(1)], D=log[SC EC50(2)]. Thus SC EC50(1) is the EC50 for the first phase of the curve, and SC EC50(2) is that for the second phase. Inhibition at the bottom of the curve is fixed at 0 % and at the top, 100 %.

[6] = static cidal EC50, first site/phase, read-out: SC EC50(1)
[7] = static cidal EC50, second site/phase, read-out: SC EC50(2)

| Compound | CLint [1] [mL/min/g] | fraction unbound at 5 h, 10 μg g^−1 [2] | PPB [2] [% free] | solubility kinetic [3] [µM] | EC50 [5, 6] [nM] | EC50 [5, 7] [nM] | EC50 (T. b. brucei; Trypanosoma brucei) [nM] | EC50 (T. b. brucei) [nM] | EC50 [4] [nM] | fold loss of activity (T. b. brucei EC50) (T. b. brucei) | MCC [5] [µM] | Mode [5] | mode of antiparasitic effect (in words) [5] | plateau of dose–response curve (inhibition) [5] [% inhibition] |
| --- | --- | --- | --- | --- | --- | --- | --- | --- | --- | --- | --- | --- | --- | --- |
| COCC(C)n1c(=O)[nH]c2ncc(-c3ccccc3)nc21 (stereo not drawn) [Compound 39, 1-(1-Methoxypropan-2-yl)-6-phenyl-1H-imidazo[4,5-b]pyrazin-2(3H)-one] | – | – | – | – | 410 | 32000 | 200 | – | > 50000 | – | > 50 | S | growth-slowing or static behaviour | – |
| O=c1[nH]c2ncc(-c3ccccc3)cc2n1C1CCCCC1 [Compound 51] | 5.8 | 0.029 | – | 36 (≈ 10.6 µg/mL) | 20 | 41000 | 54 | 50 | > 50000 | – | > 50 | S^[d] | growth-slowing or static behaviour | – |
| O=c1[nH]c2ncc(-c3ccccc3CO)cc2n1C1CCCCC1 [Compound 53] | – | – | – | – | – | – | 670 | – | > 50000 | ~13 fold | – | – | – | – |
| CC(C)(c1ccccc1)n1c(=O)[nH]c2ncc(-c3ccccc3CO)cc21 [Compound 54] | – | – | – | – | – | – | 15000 | – | > 50000 | – | – | – | – | – |
| O=c1[nH]c2ncc(N3CCOCC3)cc2n1C1CCCCC1 [Compound 57] | – | – | – | – | – | – | 330 | – | > 50000 | ~7 fold | – | – | – | – |
| OCc1ccccc1-c1cnc2[nH]nc(C3CCCCC3)c2c1 [Compound 61] | – | – | – | – | – | – | 1300 | – | > 50000 | – | – | – | – | – |
| COCc1ccccc1-c1cnc2[nH]nc(C3CCCCC3)c2c1 [Compound 62] | – | – | – | – | – | – | 2600 | – | > 50000 | – | – | – | – | – |
| c1cncc(-c2cnc3[nH]nc(C4CCCCC4)c3c2)c1 [Compound 63] | 6.6 | 0.052 | – | 250 (≈ 69.6 µg/mL) | 280 | 6100 | 260 | – | > 50000 | – | 17 | – | cidal behaviour | 100 |

Further lines, with some results ahead:

| CLint [1] [mL/min/g] | fraction unbound at 5 h, 10 μg g^−1 [2] | PPB [2] [% free] | solubility kinetic [3] [µM] | EC50 [5, 6] [nM] | EC50 [5, 7] [nM] | Compound | EC50 (T. b. brucei; Trypanosoma brucei) [nM] | EC50 (T. b. brucei) [nM] | EC50 [4] [nM] | fold loss of activity (T. b. brucei EC50) (T. b. brucei) | MCC [5] [µM] | Mode [5] | mode of antiparasitic effect (in words) [5] | plateau of dose–response curve (inhibition) [5] [% inhibition] |
| --- | --- | --- | --- | --- | --- | --- | --- | --- | --- | --- | --- | --- | --- | --- |
| 3.6 | 0.008 | 0.8 | 110 (≈ 32.4 µg/mL) | – | – | O=c1[nH]c2ncc(-c3ccccc3)nc2n1C1CCCCC1 [Compound 19] | 40 | 44 | > 50000 | – | – | – | – | – |
| – | 0.007 | – | – | – | – | COc1ccc(-c2cnc3[nH]c(=O)n(C4CCCCC4)c3n2)cc1 [Compound 20] | 330 | – | 24000 | – | – | – | – | – |
| – | 0.047 | – | – | – | – | O=c1[nH]c2ncc(-c3ccc(CO)cc3)nc2n1C1CCCCC1 [Compound 21] | 400 | – | > 50000 | 10 fold | – | – | – | – |
| – | – | – | > 250 | 70 | 30000 | O=c1[nH]c2ncc(-c3cccc(CO)c3)nc2n1C1CCCCC1 [Compound 24] | 30 | – | > 50000 | – | > 50 | S | growth-slowing or static behaviour; also recorded: static at concentration tested | – |
| – | 0.007 | – | 20 (≈ 6.25 µg/mL) | 90 | – | O=c1[nH]c2ncc(-c3ccccc3F)nc2n1C1CCCCC1 [Compound 26] | 60 | – | > 50000 | – | > 50 | – | growth-slowing or static behaviour | – |
| 2.8 | 0.023 | – | – | 230 | – | O=c1[nH]c2ncc(-c3cccnc3)nc2n1C1CCCCC1 [Compound 30] | 100 | 120 | > 50000 | – | > 50 | – | growth-slowing or static behaviour | – |
| 15 | – | 0 | – | – | – | O=c1[nH]c2ncc(N3CCCCC3)nc2n1C1CCCCC1 [Compound 31, 1-Cyclohexyl-6-(piperidin-1-yl)-1H-imidazo[4,5-b]pyrazin-2(3H)-one] | 80 | 77 | > 50000 | – | – | – | – | – |
| – | – | – | 220 (≈ 66.7 µg/mL) | – | – | O=c1[nH]c2ncc(N3CCOCC3)nc2n1C1CCCCC1 [Compound 32] | 50 | – | > 50000 | – | – | – | – | – |
| 2.7 | 0.11 | – | 180 (≈ 53 µg/mL) | 330 | – | O=c1[nH]c2ncc(-c3cccnc3)cc2n1C1CCCCC1 [Compound 55] | 230 | – | > 50000 | approximately 2 fold | > 50 | – | growth-slowing or static behaviour | – |
| 15 | 0.014 | – | 20 (≈ 5.55 µg/mL) | 80 | 7900 | c1ccc(-c2cnc3[nH]nc(C4CCCCC4)c3c2)cc1 [Compound 60] | 59 | 60 | > 50000 | – | 17 | – | cidal behaviour | 100 |
